This note sets out measurements from ChEMBL document CHEMBL5370664, “Resveratrol Derivatives Inhibit Transthyretin Fibrillization: Structural Insights into the Interactions between Resveratrol Derivatives and Transthyretin” (J Med Chem, 2023).

The source made the active and inactive calls. No cut-off for these calls is given here.

The Ki is the equilibrium dissociation constant of an inhibitor or competing ligand from its target.

The target in assay [1] is T1, Transthyretin (Homo sapiens, UniProt P02766, V50M). The assay is described as follows: Inhibition of recombinant N-terminal hexa-histidine tagged TTR V30M mutant (unknown origin) expressed in Escherichia coli assessed as acid mediated amyloid-like fibril formation by measuring turbidity incubated for 1 week at 310K in presence of sodium acetate by absorbance based assay.

Assay [2] addresses T1, Transthyretin. The assay is described as follows: Binding affinity to recombinant N-terminal hexa-histidine tagged TTR V30M mutant (unknown origin) expressed in Escherichia coli assessed as quenching of intrinsic tryptophan fluorescence by measuring apparent dissociation constant incubated for 60 mins by fluorescence based analysis. The following applies: read-out: Kd(app).

Assay [3] has as its system Transthyretin (Homo sapiens), P02766 [V50M]. The assay is described as follows: Binding affinity to N-terminal hexa-histidine tagged TTR V30M mutant (unknown origin) expressed in Escherichia coli assessed as change in enthalpy at 60 uM by ITC assay.
Assay [4] addresses T1, Transthyretin. The assay is described as follows: Binding affinity to N-terminal hexa-histidine tagged TTR V30M mutant (unknown origin) expressed in Escherichia coli assessed as dissociation constant at 60 uM by ITC assay. (ITC needs no label: the signal is the heat of the interaction.)
Assay [5] concerns Transthyretin (Homo sapiens), P02766 [V50M]. Kind of assay: Inhibition of recombinant N-terminal hexa-histidine tagged TTR V30M mutant (unknown origin) expressed in Escherichia coli assessed as acid mediated amyloid-like fibril formation by measuring fluorescence intensity at 1 uM incubated for 4 days at 310K in presence of sodium acetate by thioflavin T based fluorescence spectrophotometric analysis. The following applies: time 4.0 day.

For assay [6] the test system is unchanged. The assay is described as follows: Binding affinity to N-terminal hexa-histidine tagged TTR V30M mutant (unknown origin) expressed in Escherichia coli assessed as change in entropy at 60 uM by ITC assay.
The test system is the same in assay [7]. Kind of assay: Binding affinity to N-terminal hexa-histidine tagged TTR V30M mutant (unknown origin) expressed in Escherichia coli assessed as gibbs free energy change at 60 uM by ITC assay.

For `COc1cc(/C=C/c2ccc(O)cc2)cc(OC)c1` [PTEROSTILBENE], the Ki in assay [1] amounted to 3500 nM. For the same molecule, the Kd is 1900 nM in assay [2] and 4600 nM in assay [4]. Moreover, the deltaH in assay [3] was -14 kcal/mol. For the same molecule, the inhibition entry in assay [5] was “Active”. The -TdeltaS in assay [6] was 6.8 kcal/mol. Also, the deltaG in assay [7] was -7.3 kcal/mol.
Consider `COc1cc(/C=C/c2ccc(OC)c(OC)c2)cc(OC)c1` [(E)-3,4,3',5'-TETRAMETHOXYSTILBENE], for which the Ki in assay [1] amounted to 49000 nM. Besides, the Kd in assay [2] was determined as 6900 nM. Besides, the inhibition result in assay [5] was “inactive”.
In the case of `Oc1ccc(/C=C/c2cc(O)cc(O)c2)cc1` [RESVERATROL], in assay [1], the Ki was 2700 nM. Further, the Kd in assay [2] was determined as 1400 nM; in assay [4] it was 1500 nM. Further, in assay [3], the deltaH was -15 kcal/mol. For the same molecule, the inhibition entry in assay [5] was “Active”. Besides, in assay [6], the -TdeltaS is 6.6 kcal/mol. Besides, the deltaG in assay [7] is -8 kcal/mol.
Regarding `O=C(O)c1ccc2nc(-c3cc(Cl)cc(Cl)c3)oc2c1`, the deltaH in assay [3] was -5 kcal/mol. Further, in assay [5], the inhibition entry was “Active”. For the same molecule, in assay [6], the -TdeltaS is -4 kcal/mol.
In the case of `Oc1cc(O)cc(/C=C/c2c(O)cccc2O)c1`, the Ki in assay [1] was 54000 nM. Also, the Kd was determined as 14000 nM in assay [2] and 11000 nM in assay [4]. For the same molecule, in assay [3], the deltaH is -8.5 kcal/mol. The inhibition result in assay [5] is “inactive”. The -TdeltaS in assay [6] amounted to 1.7 kcal/mol. Further, the deltaG in assay [7] was -6.8 kcal/mol.
As to `COc1cc(O)cc(/C=C/c2ccc(O)cc2)c1`, in assay [1], the Ki turned out to be 3400 nM. Further, the results for the Kd in assay [2] and in assay [4] were 1200 nM and 2400 nM, respectively. Further, the deltaH in assay [3] is -14 kcal/mol. In addition, the inhibition entry in assay [5] is “Active”. For the same molecule, the -TdeltaS in assay [6] came to 6.2 kcal/mol. Besides, in assay [7], the deltaG is -7.7 kcal/mol.
For `COc1ccc(/C=C/c2cc(OC)cc(OC)c2)cc1` [TRISMETHOXYRESVERATROL], the Kd in assay [2] came to 4100 nM. In assay [5], the inhibition entry is “inactive”.
As to `Oc1cc(O)cc(/C=C/c2ccc(O)cc2O)c1` [OXYRESVERATROL], in assay [1], the Ki was 4500 nM. For the same molecule, the Kd in assay [2] came out at 2400 nM; in assay [4], 1400 nM. Besides, in assay [3], the deltaH is -16 kcal/mol. Further, in assay [5], the inhibition result is “Active”. Besides, the -TdeltaS in assay [6] was found to be 7.5 kcal/mol. In assay [7], the deltaG is -8.1 kcal/mol.
For the molecule `Oc1cc(O)cc(/C=C/c2ccc(O)c(O)c2)c1` [PICEATANNOL], in assay [1], the Ki amounted to 5400 nM. Besides, the Kd in assay [2] was 2100 nM; in assay [4] it was 1500 nM. Besides, the deltaH in assay [3] was -14 kcal/mol. The inhibition result in assay [5] was “Active”. Further, the -TdeltaS in assay [6] was found to be 6.4 kcal/mol. Further, the deltaG in assay [7] was -8 kcal/mol.
Consider `CC(=O)Oc1ccc(/C=C/c2cc(OC(C)=O)cc(OC(C)=O)c2)cc1` [TRIACETYLRESVERATROL], for which the Ki in assay [1] is 2200 nM. The inhibition entry in assay [5] is “Active”.
Consider `COc1cc(/C=C/c2cc(O)cc(O)c2)ccc1O`, for which the Ki in assay [1] is 3200 nM. Besides, the Kd was found to be 730 nM in assay [2] and 1200 nM in assay [4]. Further, the deltaH in assay [3] is -13 kcal/mol. Besides, the inhibition result in assay [5] was “Active”. Further, the -TdeltaS in assay [6] worked out at 4.7 kcal/mol. The deltaG in assay [7] is -8.1 kcal/mol.
Take `O=C(O)c1cc(-c2ccc(F)cc2F)ccc1O`: the deltaH in assay [3] is -13 kcal/mol. Besides, in assay [5], the inhibition entry was “Active”. For the same molecule, in assay [6], the -TdeltaS was 5.2 kcal/mol.
